Assay results taken from patent US4742045A, “Glycopeptide antibiotics” (SmithKline Beckman Corporation, priority 1986, dated 1988).
Values after ≈ are worked out from the molar mass of the structure shown. Like-named read-outs stand apart in the source and are kept apart here.

Legend:
STAPH. AUREUS HH 127 = assay: prophylactic activity, dosing preinfection; format: in vivo, mice; details: for survival printed in parentheses under ED 50: Table 8, printed with ED 50 <0.156
Staphylococcus aureus = assay: standard microtiter assay, minimum inhibitory concentration; format: cell-based; details: for MIC: Table 5 organism 1 S. aureus
Source text: (§1) Representative results of standard microtiter assays are reported in Tables 1, 2 and 3 which follow, as the minimum inhibitory concentration of antibiotic (μg/ml).
(§2) In Table 1, test organisms 1-13 were different strains of Staphylococcus aureus, and 14-16 were different strains of Staphylococcus epidermidis. In Table 2, test organisms 1-5 were different strains of S. aureus; 6, 8, 12 and 14 were different strains of S. epidermidis; 7 was a Staphylococcus haemolyticus; 9 and 10 were different strains of Streptococcus faecalis; 11 was a Streptococcus pyogenes; and 13 was a Staphylococcus saprophyticus. In Table 3, test organisms 1-3 were different strains of S. aureus; 4 and 6 were different strains of S. epidermidis; 5 was a S. haemolyticus and 7 and 8 were different strains of Streptococcus faecalis. Except where individual components are indicated, the CWI-785 antibiotic employed was the CWI-785 complex; in some cases, HCl salts of the CWI-785 antibiotic were employed.
(§3) The number of strains tested is shown in parentheses below each organism. The average MIC is reported in μg/ml.
(§4) In Table 5 are shown data from standard microtiter assays carried out in a presence of no serum, 50% human serum (hum.) and 50% mouse serum (mse.). The test organisms were 1: S. aureus; 2,4 and 5: different strains of S. epidermidis; 3: S. haemolyticus; 6: S. saprophyticus; 7 and 8: different strains of S. faecalis.

Streptococcus faecalis = assay: as above; format: cell-based
Source text: as §1, §2, §3, §4

[1] = system: Staphylococcus epidermidis; assay: as above; format: cell-based
Source text: as §1, §2, §4

[2] = system: Staphylococcus haemolyticus; assay: as above; format: cell-based; details: for MIC: Table 5 organism 3 S. haemolyticus
Source text: as §1, §2, §4

Streptococcus pyogenes = assay: as above; format: cell-based; details: Table 2 test organism 11, Streptococcus pyogenes
Source text: as §1, §2

[3] = system: Staphylococcus saprophyticus; assay: as above; format: cell-based; details: for MIC: Table 5 organism 6 S. saprophyticus
Source text: as §1, §2, §4

[4] = system: buffered rumen fluid from a donor steer; assay: 23 hour flask rumen fermentation, volatile fatty acid production
Procedure: The effects of each additive on 23 hour flask rumen fermentation were assayed. Each flask contained 10 ml of rumen fluid and 10 ml of nutrient broth comprising (mg/flask): casein hydrolysate: 20, maltose: 100, urea: 15, solka floc (cellulose): 400 and starch: 100. The flasks were incubated on a shaker at 39° C.
In Table A, ACE is acetate, PRO is propionate, IBU is isobutyrate, BUT is butyrate, IVA is isovalerate, VAL is valerate, TOTAL is total VFA and %PR is the amount of propionate relative to TOTAL. Amounts of each VFA are reported as percentages of control ruminant fluid, that is, without additive.

[5] = Table 7, vs Staph. aureus HH 127 (S.C.), read-out: ED50
[6] = Table 7: 40 mg/kg, 4 hr preinfection, S.C.
[7] = Table 8, vs Staph. aureus HH 127 (I.V.)
[8] = Table 8: 40 mg/kg (I.V.), 6 hr preinfection
[9] = Table 3 test organism 1, S. aureus strain
[10] = Table 3 test organism 2, S. aureus strain
[11] = Table 3 test organism 3, S. aureus strain
[12] = Table 3 test organism 7, Streptococcus faecalis strain
[13] = Table 3 test organism 8, Streptococcus faecalis strain
[14] = Table 3 test organism 4, S. epidermidis strain
[15] = Table 3 test organism 6, S. epidermidis strain
[16] = Table 3 test organism 5, S. haemolyticus

CNC(C(=O)NC1C(=O)NC(CC[S+](C)[O-])C(=O)NC2C(=O)NC3C(=O)NC(C(=O)NC(C(=O)O)c4cc(O)cc(O)c4-c4cc3ccc4O)C(OC3CC(N)C(O)C(C)O3)c3ccc(c(Cl)c3)Oc3cc2cc(c3O)Oc2ccc(cc2)C1O)c1ccc(O)cc1.Cl (stereo not drawn) [HPB3 hydrochloride]
ED50 (STAPH. AUREUS HH 127; [5]): 1.25 mg/kg | PERCENT SURVIVAL (STAPH. AUREUS HH 127; [6]): 100% | survival printed in parentheses under ED 50 (STAPH. AUREUS HH 127): 90% | ED50 (STAPH. AUREUS HH 127; [7]): < 0.156 mg/kg | PERCENT SURVIVAL (STAPH. AUREUS HH 127; [8]): 60%

CN[C@@H](C(=O)NC1C(=O)NC(CCSC)C(=O)NC2C(=O)NC3C(=O)NC(C(=O)NC(C(=O)O)c4cc(O)cc(O)c4-c4cc3ccc4O)C(O)c3ccc(c(Cl)c3)Oc3cc2cc(c3O)Oc2ccc(cc2)C1O)c1ccc(O)cc1 (stereo partly drawn) [CWI-785B'-aglycone]
minimum inhibitory concentration (Staphylococcus aureus; [9]): 3.1 µg/mL (≈ 2.67 µM) | minimum inhibitory concentration (Staphylococcus aureus; [10]): 3.1 µg/mL (≈ 2.67 µM) | minimum inhibitory concentration (Staphylococcus aureus; [11]): 3.1 µg/mL (≈ 2.67 µM) | minimum inhibitory concentration (Streptococcus faecalis; [12]): 0.8 µg/mL (≈ 0.688 µM) | minimum inhibitory concentration (Streptococcus faecalis; [13]): 0.8 µg/mL (≈ 0.688 µM) | minimum inhibitory concentration [1, 14]: 3.1 µg/mL (≈ 2.67 µM) | minimum inhibitory concentration [1, 15]: 6.3 µg/mL (≈ 5.42 µM) | minimum inhibitory concentration [2, 16]: 6.3 µg/mL (≈ 5.42 µM)

CNC(C(=O)NC1C(=O)NC(CC[S+](C)[O-])C(=O)NC2C(=O)NC3C(=O)NC(C(=O)NC(C(=O)O)c4cc(O)cc(O)c4-c4cc3ccc4O)C(OC3CC(N)C(O)C(C)O3)c3ccc(c(Cl)c3)Oc3cc2cc(c3O)Oc2ccc(cc2)C1O)c1ccc(O)cc1 (stereo not drawn) [HPB3]
minimum inhibitory concentration (Staphylococcus aureus; Table 2 test organism 1, S. aureus strain): 0.8 µg/mL (≈ 0.612 µM) | minimum inhibitory concentration (Staphylococcus aureus; Table 2 test organism 2, S. aureus strain): 0.8 µg/mL (≈ 0.612 µM) | minimum inhibitory concentration (Staphylococcus aureus; Table 2 test organism 3, S. aureus strain): 0.8 µg/mL (≈ 0.612 µM) | minimum inhibitory concentration (Staphylococcus aureus; Table 2 test organism 4, S. aureus strain): 0.4 µg/mL (≈ 0.306 µM) | minimum inhibitory concentration (Staphylococcus aureus; Table 2 test organism 5, S. aureus strain): 0.8 µg/mL (≈ 0.612 µM) | MIC (Staphylococcus aureus; 50% Hum. Serum): 0.8 µg/mL (≈ 0.612 µM) | MIC (Staphylococcus aureus; 50% Mse. Serum): 0.8 µg/mL (≈ 0.612 µM) | MIC (Staphylococcus aureus; No Serum): 0.8 µg/mL (≈ 0.612 µM) | minimum inhibitory concentration (Streptococcus faecalis; Table 2 test organism 9, Streptococcus faecalis strain): 0.8 µg/mL (≈ 0.612 µM) | minimum inhibitory concentration (Streptococcus faecalis; Table 2 test organism 10, Streptococcus faecalis strain): 0.8 µg/mL (≈ 0.612 µM) | MIC (Streptococcus faecalis; Table 5 organism 7 S. faecalis, 50% Hum. Serum): 3.1 µg/mL (≈ 2.37 µM) | MIC (Streptococcus faecalis; Table 5 organism 7 S. faecalis, 50% Mse. Serum): 3.1 µg/mL (≈ 2.37 µM) | MIC (Streptococcus faecalis; Table 5 organism 7 S. faecalis, No Serum): 0.8 µg/mL (≈ 0.612 µM) | MIC (Streptococcus faecalis; Table 5 organism 8 S. faecalis, 50% Hum. Serum): 6.3 µg/mL (≈ 4.82 µM) | MIC (Streptococcus faecalis; Table 5 organism 8 S. faecalis, 50% Mse. Serum): 3.1 µg/mL (≈ 2.37 µM) | MIC (Streptococcus faecalis; Table 5 organism 8 S. faecalis, No Serum): 0.8 µg/mL (≈ 0.612 µM) | minimum inhibitory concentration (Streptococcus pyogenes): 0.1 µg/mL (≈ 0.0765 µM) | minimum inhibitory concentration ([1]; Table 2 test organism 6, S. epidermidis strain): 0.8 µg/mL (≈ 0.612 µM) | minimum inhibitory concentration ([1]; Table 2 test organism 8, S. epidermidis strain): 0.8 µg/mL (≈ 0.612 µM) | minimum inhibitory concentration ([1]; Table 2 test organism 12, S. epidermidis strain): 0.8 µg/mL (≈ 0.612 µM) | minimum inhibitory concentration ([1]; Table 2 test organism 14, S. epidermidis strain): 0.8 µg/mL (≈ 0.612 µM) | MIC ([1]; Table 5 organism 2 S. epidermidis, 50% Hum. Serum): 6.1 µg/mL (≈ 4.66 µM) | MIC ([1]; Table 5 organism 2 S. epidermidis, 50% Mse. Serum): 1.6 µg/mL (≈ 1.22 µM) | MIC ([1]; Table 5 organism 2 S. epidermidis, No Serum): 0.8 µg/mL (≈ 0.612 µM) | MIC ([1]; Table 5 organism 4 S. epidermidis, 50% Hum. Serum): 1.6 µg/mL (≈ 1.22 µM) | MIC ([1]; Table 5 organism 4 S. epidermidis, 50% Mse. Serum): 1.6 µg/mL (≈ 1.22 µM) | MIC ([1]; Table 5 organism 4 S. epidermidis, No Serum): 0.8 µg/mL (≈ 0.612 µM) | MIC ([1]; Table 5 organism 5 S. epidermidis, 50% Hum. Serum): 0.8 µg/mL (≈ 0.612 µM) | MIC ([1]; Table 5 organism 5 S. epidermidis, 50% Mse. Serum): 0.8 µg/mL (≈ 0.612 µM) | MIC ([1]; Table 5 organism 5 S. epidermidis, No Serum): 0.8 µg/mL (≈ 0.612 µM) | minimum inhibitory concentration ([3]; Table 2 test organism 13, Staphylococcus saprophyticus): 0.8 µg/mL (≈ 0.612 µM) | MIC ([3]; 50% Hum. Serum): 3.1 µg/mL (≈ 2.37 µM) | MIC ([3]; 50% Mse. Serum): 3.1 µg/mL (≈ 2.37 µM) | MIC ([3]; No Serum): 0.8 µg/mL (≈ 0.612 µM) | minimum inhibitory concentration ([2]; Table 2 test organism 7, Staphylococcus haemolyticus): 1.6 µg/mL (≈ 1.22 µM) | MIC ([2]; 50% Hum. Serum): 6.3 µg/mL (≈ 4.82 µM) | MIC ([2]; 50% Mse. Serum): 3.1 µg/mL (≈ 2.37 µM) | MIC ([2]; No Serum): 1.6 µg/mL (≈ 1.22 µM)

CN[C@H](C(=O)NC1C(=O)NC(CCSC)C(=O)NC2C(=O)NC3C(=O)NC(C(=O)NC(C(=O)O)c4cc(O)cc(O)c4-c4cc3ccc4O)C(O)c3ccc(c(Cl)c3)Oc3cc2cc(c3O)Oc2ccc(cc2)C1O)c1ccc(O)cc1 (stereo partly drawn) [CWI-785B"-aglycone]
minimum inhibitory concentration (Staphylococcus aureus; [9]): 25.0 µg/mL (≈ 21.5 µM) | minimum inhibitory concentration (Staphylococcus aureus; [10]): 25.0 µg/mL (≈ 21.5 µM) | minimum inhibitory concentration (Staphylococcus aureus; [11]): 25.0 µg/mL (≈ 21.5 µM) | minimum inhibitory concentration (Streptococcus faecalis; [12]): 3.1 µg/mL (≈ 2.67 µM) | minimum inhibitory concentration (Streptococcus faecalis; [13]): 1.6 µg/mL (≈ 1.38 µM) | minimum inhibitory concentration [1, 14]: 25.0 µg/mL (≈ 21.5 µM) | minimum inhibitory concentration [1, 15]: 25.0 µg/mL (≈ 21.5 µM) | minimum inhibitory concentration [2, 16]: 50.0 µg/mL (≈ 43 µM)

CC[C@@]1([C@@H]2O[C@@H]([C@H]3O[C@@](O)(CO)[C@H](C)C[C@@H]3C)C[C@@H]2C)CC[C@H]([C@]2(C)CC[C@]3(C[C@H](O)[C@@H](C)[C@@H]([C@@H](C)[C@@H](OC)[C@H](C)C(=O)O)O3)O2)O1 [Monensin, monensin]
ACE (acetate) ([4]; 0.50 PPM): 108 percentages of control | BUT (butyrate) ([4]; 0.50 PPM): 100 percentages of control | IBU (isobutyrate) ([4]; 0.50 PPM): 101 percentages of control | IVA (isovalerate) ([4]; 0.50 PPM): 246 percentages of control | PRO (propionate) ([4]; 0.50 PPM): 96 percentages of control | TOTAL (total VFA) ([4]; 0.50 PPM): 105 percentages of control | VAL (valerate) ([4]; 0.50 PPM): 114 percentages of control | ACE (acetate) ([4]; 5.00 PPM): 96 percentages of control | BUT (butyrate) ([4]; 5.00 PPM): 60 percentages of control | IBU (isobutyrate) ([4]; 5.00 PPM): 77 percentages of control | IVA (isovalerate) ([4]; 5.00 PPM): 106 percentages of control | PRO (propionate) ([4]; 5.00 PPM): 174 percentages of control | TOTAL (total VFA) ([4]; 5.00 PPM): 103 percentages of control | VAL (valerate) ([4]; 5.00 PPM): 41 percentages of control | ACE (acetate) ([4]; 50.00 PPM): 91 percentages of control | BUT (butyrate) ([4]; 50.00 PPM): 53 percentages of control | IBU (isobutyrate) ([4]; 50.00 PPM): 104 percentages of control | IVA (isovalerate) ([4]; 50.00 PPM): 134 percentages of control | PRO (propionate) ([4]; 50.00 PPM): 211 percentages of control | VAL (valerate) ([4]; 50.00 PPM): 38 percentages of control

CNC(C(=O)NC1C(=O)NC(CCSC)C(=O)NC2C(=O)NC3C(=O)NC(C(=O)NC(C(=O)O)c4cc(O)cc(O)c4-c4cc3ccc4O)C(OC3CC(N)C(O)C(C)O3)c3ccc(c(Cl)c3)Oc3cc2cc(c3O)Oc2ccc(cc2)C1O)c1ccc(O)cc1.Cl (stereo not drawn) [HPB4 hydrochloride]
ED50 (STAPH. AUREUS HH 127; [5]): 1.25 mg/kg | PERCENT SURVIVAL (STAPH. AUREUS HH 127; [6]): 100% | survival printed in parentheses under ED 50 (STAPH. AUREUS HH 127): 100% | ED50 (STAPH. AUREUS HH 127; [7]): < 0.156 mg/kg | PERCENT SURVIVAL (STAPH. AUREUS HH 127; [8]): 100%
